This is an account of results in patent US5516894A, “A2b -adenosine receptors” (priority 1994, dated 1996).

Entries after “also recorded” stand apart in the source; their conditions may differ.

In assay [1] the target is T1, RFL9 (rat A2b-adenosine receptor) (Rattus norvegicus, UniProt P29276).
T1 sequence (P29276 1-332): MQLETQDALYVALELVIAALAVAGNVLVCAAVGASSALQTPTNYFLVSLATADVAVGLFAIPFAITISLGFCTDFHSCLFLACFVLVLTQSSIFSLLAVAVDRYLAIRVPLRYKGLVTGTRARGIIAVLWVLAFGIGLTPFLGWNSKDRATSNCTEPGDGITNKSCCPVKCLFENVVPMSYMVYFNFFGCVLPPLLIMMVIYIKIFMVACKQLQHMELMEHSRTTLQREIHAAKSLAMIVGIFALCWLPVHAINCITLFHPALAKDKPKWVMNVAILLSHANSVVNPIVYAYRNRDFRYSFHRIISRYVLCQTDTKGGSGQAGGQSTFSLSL
Put plainly: ligand binding to COS-6M cells transiently transfected with RFL9. Particulars: for specific binding: [3H]NECA 20 nM, [3H]CCPA 2 nM, [3H]CGS-21680 20 nM.

Assay [2] deals with dog A2a-adenosine receptor. Particulars: cited from earlier work.
Assay [3] has as its target T1, RFL9 (rat A2b-adenosine receptor). Nature of the assay: cAMP in CHO cells stably transfected with RFL9. The format is cell-based. The note with it: NECA 1 μM; four clones. From the text:
Eight clones were identified which expressed RFL9 mRNA.
Generation of Stable Cell Lines
RNA was extracted from cells following NP-40 lysis.
Cyclic AMP Studies on Stable Transfectants

Assay [4] has the same target. Put plainly: cAMP response in COS-6M cells transfected with RFL9. The format is cell-based.
For another assay, the system named is A2a-adenosine receptors. Particulars: cited from earlier work.
For assay [5], the target named is rat A2a-adenosine receptor (Rattus norvegicus, UniProt P30543). Particulars: COS-6M cells; [3H]NECA 20 nM, [3H]CCPA 2 nM, [3H]CGS-21680 20 nM.
Assay [6] has as its target T2, rat A1-adenosine receptor (Rattus norvegicus, UniProt P25099).
T2 sequence (P25099 1-326): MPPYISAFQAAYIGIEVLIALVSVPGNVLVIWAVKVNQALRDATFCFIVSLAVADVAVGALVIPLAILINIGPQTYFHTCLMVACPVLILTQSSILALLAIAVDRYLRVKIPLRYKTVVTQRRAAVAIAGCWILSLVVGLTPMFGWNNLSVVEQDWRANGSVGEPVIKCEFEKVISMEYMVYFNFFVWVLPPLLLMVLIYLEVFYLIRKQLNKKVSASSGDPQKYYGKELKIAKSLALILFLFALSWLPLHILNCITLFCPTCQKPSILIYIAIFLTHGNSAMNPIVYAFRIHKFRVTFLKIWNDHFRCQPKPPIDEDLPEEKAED
Put plainly: [3H]ligand binding to COS-6M cells transiently transfected with rat A1-adenosine receptor cDNA. Particulars: [3H]NECA 20 nM, [3H]CCPA 2 nM.

Assay [7] concerns the target T1, RFL9 (rat A2b-adenosine receptor). Put plainly: [3H]NECA specific binding to RFL9-transformed CHO cells. The note with it: 100 nM; n=3. From the text: All determinations were done in triplicate.
Assay [8] concerns non-transformed CHO cells. Particulars: 100 nM.
For a further assay, the system named is CHO cells. Nature of the assay: cAMP accumulation in non-transformed CHO cells. The format is cell-based, Chinese Hamster. The note with it: 1 mM; CHO cells not transformed; n=3.

As for `COc1ccc2[nH]c([125I])c(CCNC(C)=O)c2c1` [2[^125 1]melatonin], the “specific binding of 2[125I]melatonin” value in assay [1] is given as “do not exhibit specific binding”.

Regarding `CCNC(=O)[C@H]1O[C@@H](n2cnc3c(N)nc(NCCc4ccc(CCC(=O)O)cc4)nc32)[C@H](O)[C@@H]1O` [CGS-21680, 2-[p-(2-carboxyethyl)phenethylamino]5'-N-ethylcarbox-amidoadenosine], the “affinity for dog A2a-adenosine receptor” value in assay [2] was “high affinity”.

With `CCNC(=O)[C@H]1O[C@@H](n2cnc3c(N)ncnc32)[C@H](O)[C@@H]1O` [NECA, 5'-N-ethylcarboxamidoadenosine], the specific binding result in assay [1] was “bind the nonselective adenosine agonist NECA”. For the same compound, the stimulation of clones entry in assay [3] is “all were found to be stimulated by NECA addition”. For the same compound, the EC100 in assay [4] (10 min, read-out: concentration of maximal stimulation of cAMP) came to 10 µM. Besides, the “NECA-stimulated increase in cAMP levels” value in [4] (dose-response) is “dose-dependent increase in cAMP levels”. Moreover, the “affinity for A2a-adenosine receptors” value in the assay with A2a-adenosine receptors is on record as “high affinity”.

As for `OC[C@H]1O[C@@H](n2cnc3c(NC4CCCC4)nc(Cl)nc32)[C@H](O)[C@@H]1O` [[^3 H]CCPA, [^3 H]2-chloro-N-cyclopentyladenosine], the specific binding entry was “did not bind; also recorded: do not bind either the A1 - or A2a -receptor-specific agonists with high affinity” in assay [1], “Only cells transfected with the A1 -adenosine receptor cDNA specifically bound” in [5] and “specifically bound” in assay [6].

On to `CCNC(=O)[C@H]1O[C@@H](n2cnc3c(N)nc(NCCc4ccc(CCC(=O)O)cc4)nc32)[C@H](O)[C@@H]1O` [[^3 H]CGS-21680, [^3 H]2-[p-(2-carboxyethyl)phenethylamino]5'-N-ethylcarbox-amidoadenosine], for which the specific binding entry in [6] is “Only cells transfected with the A2a -adenosine receptor cDNA specifically bound”.

For the compound `CCNC(=O)[C@H]1O[C@@H](n2cnc3c(N)ncnc32)[C@H](O)[C@@H]1O` [[^3 H]NECA, [^3 H]5'-N-ethylcarboxamidoadenosine], in assay [1], the specific binding entry is listed as “specifically bound”. Also, in assay [7], the “[3H]NECA specific binding” value is 150 ± 20 fmol/mg.

Regarding `CCNC(=O)[C@H]1O[C@@H](n2cnc3c(N)ncnc32)[C@H](O)[C@@H]1O` [[^3 H]NECA] [[^3 H]5'-N-ethylcarboxamidoadenosine], the specific binding entry in assay [6] is on record as “specifically bound”. Further, the “[3H]NECA specific binding” value in assay [8] came out at 100 ± 23 fmol/mg.

Regarding `Nc1ncnc2c1ncn2[C@@H]1O[C@H](CO)[C@@H](O)[C@H]1O` [adenosine], the cAMP accumulation entry with CHO cells is “Neither NECA or adenosine (1 mM) induced cAMP accumulation”.

For `Cn1c(=O)c2[nH]cnc2n(C)c1=O` [aminophylline], the “inhibition of maximal NECA-stimulated increase in cAMP levels” value in assay [4] (antagonist 10^-2 M) is given as “completely blocked; also recorded: completely inhibited”.
